This is an account of results in ChEMBL document CHEMBL1932974, “Optimization of a novel kinase inhibitor scaffold for the dual inhibition of JAK2 and FAK kinases” (Bioorg Med Chem Lett, 2012).

In the first assay the target is T1, Tyrosine-protein kinase JAK2 (Homo sapiens, UniProt O60674). Kind of assay: Inhibition of human recombinant JAK2 expressed in baculovirus expression system after 20 mins by time resolved fluorescence assay.
T1 sequence (O60674 whole entry): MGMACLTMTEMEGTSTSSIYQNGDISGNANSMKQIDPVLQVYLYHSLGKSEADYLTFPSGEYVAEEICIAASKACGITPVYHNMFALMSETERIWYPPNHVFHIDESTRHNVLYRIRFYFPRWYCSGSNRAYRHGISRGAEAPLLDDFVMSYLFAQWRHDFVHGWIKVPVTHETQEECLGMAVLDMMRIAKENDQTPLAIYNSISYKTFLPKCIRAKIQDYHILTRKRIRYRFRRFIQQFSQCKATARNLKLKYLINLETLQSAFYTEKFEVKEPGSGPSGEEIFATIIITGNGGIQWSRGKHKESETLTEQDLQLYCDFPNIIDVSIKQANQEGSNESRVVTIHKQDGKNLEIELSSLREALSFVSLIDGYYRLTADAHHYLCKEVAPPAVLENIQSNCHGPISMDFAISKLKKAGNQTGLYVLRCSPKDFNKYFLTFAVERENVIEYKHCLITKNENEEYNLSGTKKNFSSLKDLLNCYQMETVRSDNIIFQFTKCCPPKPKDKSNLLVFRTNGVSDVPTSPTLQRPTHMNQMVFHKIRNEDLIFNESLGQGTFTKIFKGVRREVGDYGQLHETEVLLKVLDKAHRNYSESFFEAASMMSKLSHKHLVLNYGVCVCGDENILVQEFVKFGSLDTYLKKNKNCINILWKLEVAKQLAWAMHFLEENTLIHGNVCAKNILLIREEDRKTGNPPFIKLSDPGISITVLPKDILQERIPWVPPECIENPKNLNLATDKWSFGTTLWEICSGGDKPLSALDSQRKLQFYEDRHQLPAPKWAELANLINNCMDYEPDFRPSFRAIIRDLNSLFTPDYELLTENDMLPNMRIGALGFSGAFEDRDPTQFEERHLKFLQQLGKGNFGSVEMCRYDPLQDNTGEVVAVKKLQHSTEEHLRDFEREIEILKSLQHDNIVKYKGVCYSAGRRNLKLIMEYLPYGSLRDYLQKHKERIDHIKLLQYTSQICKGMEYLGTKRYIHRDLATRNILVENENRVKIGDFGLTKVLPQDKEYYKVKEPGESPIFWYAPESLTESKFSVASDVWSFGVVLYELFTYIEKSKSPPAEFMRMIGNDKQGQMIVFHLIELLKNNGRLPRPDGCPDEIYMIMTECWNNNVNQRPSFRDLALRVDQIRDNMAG
Broadly, the IC50 is the midpoint of a concentration-inhibition curve. In the case of `CS(=O)(=O)c1ccc(-c2ccc3cnc(Nc4ccc(C5CCN(CC(N)=O)CC5)cc4)nn23)cc1`, the half-maximal inhibitory concentration (IC50) was found to be 0.00022 µM.

Take `CS(=O)(=O)c1cccc(-c2ccc3cnc(Nc4ccc(C5CCN(CC(N)=O)CC5)cc4)nn23)c1`: the IC50 was 0.00052 µM.

As for `CN(c1ncccc1-c1ccc2cnc(Nc3ccc(C4CCN(CC(N)=O)CC4)cc3)nn12)S(C)(=O)=O`, the IC50 came to 0.0021 µM.

In the case of `COc1cccnc1-c1ccc2cnc(Nc3ccc(C4CCN(CC(N)=O)CC4)cc3)nn12`, the half-maximal inhibitory concentration (IC50) stood at 0.016 µM.

`NC(=O)CN1CCC(c2ccc(Nc3ncc4ccc(-c5ncccn5)n4n3)cc2)CC1`: the IC50 came to 0.085 µM.

On to `NC(=O)CN1CCC(c2ccc(Nc3ncc4ccc(-c5cnccn5)n4n3)cc2)CC1`, for which the concentration for half-maximal inhibition (IC50) was 0.0089 µM.

For `NC(=O)CN1CCC(c2ccc(Nc3ncc4ccc(-c5cccc6c5OC(F)(F)O6)n4n3)cc2)CC1`, the IC50 came to 0.013 µM.

As for `CN(C)Cc1ccc(-c2ccc3cnc(Nc4ccc(C5CCN(CC(N)=O)CC5)cc4)nn23)cc1`, the IC50 amounted to 2.9 µM.

In the case of `NC(=O)CN1CCC(c2ccc(Nc3ncc4ccc(-c5cccc6cccnc56)n4n3)cc2)CC1`, the half-inhibitory concentration (IC50) turned out to be 0.0063 µM.

A further assay deals with T2, Focal adhesion kinase 1 (Homo sapiens, UniProt Q05397). Kind of assay: Inhibition of human recombinant FAK expressed in baculovirus expression system after 30 mins by time resolved fluorescence assay.
T2 sequence (Q05397 whole entry): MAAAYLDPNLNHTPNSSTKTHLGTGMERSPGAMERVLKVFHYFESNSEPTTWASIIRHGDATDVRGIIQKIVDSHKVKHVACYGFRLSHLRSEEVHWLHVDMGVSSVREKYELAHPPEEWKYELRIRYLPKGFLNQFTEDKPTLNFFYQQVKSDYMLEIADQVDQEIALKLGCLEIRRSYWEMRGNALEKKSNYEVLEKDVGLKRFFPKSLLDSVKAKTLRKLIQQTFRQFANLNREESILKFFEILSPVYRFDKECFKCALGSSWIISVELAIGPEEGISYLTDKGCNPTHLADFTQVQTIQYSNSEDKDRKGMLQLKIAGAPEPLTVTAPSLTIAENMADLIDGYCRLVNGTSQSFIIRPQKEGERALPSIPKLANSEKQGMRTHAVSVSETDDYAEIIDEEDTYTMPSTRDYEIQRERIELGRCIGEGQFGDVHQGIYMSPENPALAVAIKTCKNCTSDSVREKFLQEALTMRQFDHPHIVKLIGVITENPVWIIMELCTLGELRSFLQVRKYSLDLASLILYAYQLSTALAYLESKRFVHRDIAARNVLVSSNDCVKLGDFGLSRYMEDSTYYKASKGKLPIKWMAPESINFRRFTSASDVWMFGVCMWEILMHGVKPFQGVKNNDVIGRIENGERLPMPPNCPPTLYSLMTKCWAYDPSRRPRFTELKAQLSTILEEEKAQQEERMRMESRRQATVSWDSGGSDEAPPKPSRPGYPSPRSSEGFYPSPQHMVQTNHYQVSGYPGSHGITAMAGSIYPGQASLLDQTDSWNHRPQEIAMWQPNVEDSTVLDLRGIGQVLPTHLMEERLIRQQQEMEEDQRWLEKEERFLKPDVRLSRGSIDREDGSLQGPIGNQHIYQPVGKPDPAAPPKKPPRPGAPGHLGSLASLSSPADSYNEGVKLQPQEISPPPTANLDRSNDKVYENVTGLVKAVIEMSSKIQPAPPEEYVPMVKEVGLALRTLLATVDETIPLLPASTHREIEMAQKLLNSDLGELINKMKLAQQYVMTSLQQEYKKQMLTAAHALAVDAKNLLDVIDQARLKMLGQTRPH
As to `CS(=O)(=O)c1ccc(-c2ccc3cnc(Nc4ccc(C5CCN(CC(N)=O)CC5)cc4)nn23)cc1`, the IC50 worked out at 0.114 µM.

`CS(=O)(=O)c1cccc(-c2ccc3cnc(Nc4ccc(C5CCN(CC(N)=O)CC5)cc4)nn23)c1`: the IC50 worked out at 0.025 µM.

As to `CN(c1ncccc1-c1ccc2cnc(Nc3ccc(C4CCN(CC(N)=O)CC4)cc3)nn12)S(C)(=O)=O`, the IC50 amounted to 0.014 µM.

Regarding `COc1cccnc1-c1ccc2cnc(Nc3ccc(C4CCN(CC(N)=O)CC4)cc3)nn12`, the IC50 turned out to be 2.04 µM.

Turning to `NC(=O)CN1CCC(c2ccc(Nc3ncc4ccc(-c5ncccn5)n4n3)cc2)CC1`, the concentration for half-maximal inhibition (IC50) is above 10 µM.

With `NC(=O)CN1CCC(c2ccc(Nc3ncc4ccc(-c5cnccn5)n4n3)cc2)CC1`, the IC50 is 0.551 µM.

As for `NC(=O)CN1CCC(c2ccc(Nc3ncc4ccc(-c5cccc6c5OC(F)(F)O6)n4n3)cc2)CC1`, the half-inhibitory concentration (IC50) worked out at 0.122 µM.

Take `CN(C)Cc1ccc(-c2ccc3cnc(Nc4ccc(C5CCN(CC(N)=O)CC5)cc4)nn23)cc1`: the IC50 is above 1 µM.

As for `CS(=O)(=O)N1Cc2cccc(-c3ccc4cnc(Nc5ccc(C6CCN(CC(N)=O)CC6)cc5)nn34)c2C1`, the 50% inhibitory concentration (IC50) turned out to be 0.205 µM.

As for `NC(=O)CN1CCC(c2ccc(Nc3ncc4ccc(-c5cccc6cccnc56)n4n3)cc2)CC1`, the half-maximal inhibitory concentration (IC50) worked out at 0.167 µM.

Consider `Cc1cc(-c2ccccc2N(C)S(C)(=O)=O)n2nc(Nc3ccc(C4CCN(CC(N)=O)CC4)cc3)ncc12`, for which the half-maximal inhibitory concentration (IC50) was 0.011 µM.

The target of another assay is T1, Tyrosine-protein kinase JAK2. Kind of assay: Inhibition of JAK2 in GM-CSF-stimulated human TF1 cells preincubated for 1 hr prior to challenge.
For `CS(=O)(=O)c1ccc(-c2ccc3cnc(Nc4ccc(C5CCN(CC(N)=O)CC5)cc4)nn23)cc1`, the midpoint of inhibition, the IC50, lay at 0.029 µM.

In turn, `CS(=O)(=O)c1cccc(-c2ccc3cnc(Nc4ccc(C5CCN(CC(N)=O)CC5)cc4)nn23)c1` returned an IC50 of 0.058 µM.

As for `CN(c1ncccc1-c1ccc2cnc(Nc3ccc(C4CCN(CC(N)=O)CC4)cc3)nn12)S(C)(=O)=O`, the half-inhibitory concentration (IC50) worked out at 0.038 µM.

Turning to `COc1cccnc1-c1ccc2cnc(Nc3ccc(C4CCN(CC(N)=O)CC4)cc3)nn12`, the concentration for half-maximal inhibition (IC50) worked out at 1.14 µM.

With `NC(=O)CN1CCC(c2ccc(Nc3ncc4ccc(-c5cnccn5)n4n3)cc2)CC1`, the half-inhibitory concentration (IC50) was 0.282 µM.

Consider `NC(=O)CN1CCC(c2ccc(Nc3ncc4ccc(-c5cccc6c5OC(F)(F)O6)n4n3)cc2)CC1`, for which the IC50 was above 1 µM.

Compound `NC(=O)CN1CCC(c2ccc(Nc3ncc4ccc(-c5cccc6cccnc56)n4n3)cc2)CC1` came in with a 50% inhibitory concentration (IC50) of 0.17 µM.

Another assay addresses T2, Focal adhesion kinase 1. Kind of assay: Inhibition of FAK in human 293GT cells after 1 hr by luminescence-based spectrophotometry. It is filed as cell-based.
Consider `CS(=O)(=O)c1ccc(-c2ccc3cnc(Nc4ccc(C5CCN(CC(N)=O)CC5)cc4)nn23)cc1`, for which the IC50 was above 10 µM.

On to `CS(=O)(=O)c1cccc(-c2ccc3cnc(Nc4ccc(C5CCN(CC(N)=O)CC5)cc4)nn23)c1`, for which half-maximal inhibition (IC50) was put at 1.01 µM.

Turning to `CN(c1ncccc1-c1ccc2cnc(Nc3ccc(C4CCN(CC(N)=O)CC4)cc3)nn12)S(C)(=O)=O`, inhibition was half-maximal at 0.75 µM (IC50).

`COc1cccnc1-c1ccc2cnc(Nc3ccc(C4CCN(CC(N)=O)CC4)cc3)nn12`: the IC50 is above 10 µM.

Compound `Cc1cc(-c2ccccc2N(C)S(C)(=O)=O)n2nc(Nc3ccc(C4CCN(CC(N)=O)CC4)cc3)ncc12` had a 50% inhibitory concentration (IC50) of 1.23 µM.
